This passage reports solubility results from US8778403B2, “Diketopiperazine microparticles with defined specific surface areas” (MannKind Corporation, priority 2009, dated 2014).

This data set in a line: Solubility of FDKP as a function of pH. In kind it is physicochemical.

Regarding `O=C(O)/C=C/C(=O)NCCCCC1NC(=O)C(CCCCNC(=O)/C=C/C(=O)O)NC1=O` (centres unmarked) [FDKP, bis-3,6-(N-fumaryl-4-aminobutyl)-2,5-diketo-diketopiperazine], the solubility result is “readily soluble” (at neutral or basic pH) and “low solubility” (in acid).
